According to PubChem BioAssay AID2060894 (Molecular Pharmacology Branch, DTP, NCI, 2025):
pIC50: −log10 of the molar value.

Test system: K12877-001-R-J1-PDC complex spheroid viability
Assay: Anticancer human tumor K12877-001-R-J1-PDC patient-derived lung adenocarcinoma cell line growth inhibition [RAS]
Settings: for pIC50: curve of first compound; for viability, T/C: stronger effect = lower value
Outline: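 Multi-cell-type spheroids: tumor cells plus HUVEC endothelial cells and mesenchymal stem cells. RAS-pathway inhibitors were combined with targeted agents, each dosed in half-log steps down from clinical Cmax, or from 10 microM when Cmax was unknown.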

[1] = second compound 0.000949 µM, first compound 0.0316 µM
[2] = second compound 0.000949 µM, first compound 0.1 µM
[3] = second compound 0.000949 µM, first compound 0.316 µM
[4] = second compound 0.000949 µM, first compound 1 µM
[5] = second compound 0.000949 µM, first compound 3.16 µM
[6] = second compound 0.000949 µM, first compound 10 µM
[7] = second compound 0.003 µM, first compound 0.0316 µM
[8] = second compound 0.003 µM, first compound 0.1 µM
[9] = second compound 0.003 µM, first compound 0.316 µM
[10] = second compound 0.003 µM, first compound 1 µM
[11] = second compound 0.003 µM, first compound 3.16 µM
[12] = second compound 0.003 µM, first compound 10 µM
[13] = second compound 0.00949 µM, first compound 0.0316 µM
[14] = second compound 0.00949 µM, first compound 0.1 µM
[15] = second compound 0.00949 µM, first compound 0.316 µM
[16] = second compound 0.00949 µM, first compound 1 µM
[17] = second compound 0.00949 µM, first compound 3.16 µM
[18] = second compound 0.00949 µM, first compound 10 µM
[19] = second compound 0.03 µM, first compound 0.0316 µM
[20] = second compound 0.03 µM, first compound 0.1 µM
[21] = second compound 0.03 µM, first compound 0.316 µM
[22] = second compound 0.03 µM, first compound 1 µM
[23] = second compound 0.03 µM, first compound 3.16 µM
[24] = second compound 0.03 µM, first compound 10 µM
[25] = second compound 0.0949 µM, first compound 0.0316 µM
[26] = second compound 0.0949 µM, first compound 0.1 µM
[27] = second compound 0.0949 µM, first compound 0.316 µM
[28] = second compound 0.0949 µM, first compound 1 µM
[29] = second compound 0.0949 µM, first compound 3.16 µM
[30] = second compound 0.0949 µM, first compound 10 µM
[31] = second compound 0.3 µM, first compound 0.0316 µM
[32] = second compound 0.3 µM, first compound 0.1 µM
[33] = second compound 0.3 µM, first compound 0.316 µM
[34] = second compound 0.3 µM, first compound 1 µM
[35] = second compound 0.3 µM, first compound 3.16 µM
[36] = second compound 0.3 µM, first compound 10 µM
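Also: spheroids exposed to agents for one week before readout.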
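For viability, T/C in this document: tumour cells co-cultured with HUVEC and mesenchymal stem cells in spheroids.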

In the case of CC(=O)OC12COC1CC(O)C1(C)C(=O)C(O)C3=C(C)C(OC(=O)C(O)C(NC(=O)OC(C)(C)C)c4ccccc4)CC(O)(C(OC(=O)c4ccccc4)C21)C3(C)C (centres undefined) + CCn1c(-c2cc(N3CCN(C)CC3)cnc2C(C)OC)c2c3cc(ccc31)-c1csc(n1)CC(NC(=O)C1CC1C)C(=O)N1CCCC(N1)C(=O)OCC(C)(C)C2, the pIC50 (second compound 0.000949 µM) was > 7.50, the pIC50 (second compound 0.003 µM) was > 7.50 and the pIC50 (second compound 0.00949 µM) was > 7.50. For the same molecule, the pIC50 (second compound 0.03 µM) was > 7.50, the pIC50 (second compound 0.0949 µM) was > 7.50 and the pIC50 (second compound 0.3 µM) was > 7.50. It also gave a viability, T/C [1] of 7.37%, a viability, T/C [2] of 5.79% and a viability, T/C [3] of 4.69%. It also gave a viability, T/C [4] of 5.58%, a viability, T/C [5] of 7.53% and a viability, T/C [6] of 12.1%. The viability, T/C [7] was 5.77%, the viability, T/C [8] was 4.36% and the viability, T/C [9] was 3.51%. For the same molecule, the viability, T/C [10] was 4.48%, the viability, T/C [11] was 5.26% and the viability, T/C [12] was 14%. The viability, T/C [13] was 5.17%, the viability, T/C [14] was 4.24% and the viability, T/C [15] was 3.37%. For the same molecule, the viability, T/C [16] was 3.68%, the viability, T/C [17] was 4.57% and the viability, T/C [18] was 12.9%. It also gave a viability, T/C [19] of 4.63%, a viability, T/C [20] of 2.99% and a viability, T/C [21] of 3.02%. It also gave a viability, T/C [22] of 3.05%, a viability, T/C [23] of 4.55% and a viability, T/C [24] of 10.7%. For the same molecule, the viability, T/C [25] was 4.19%, the viability, T/C [26] was 2.73% and the viability, T/C [27] was 2.45%. For the same molecule, the viability, T/C [28] was 2.46%, the viability, T/C [29] was 3.56% and the viability, T/C [30] was 9.41%. The viability, T/C [31] was 3.57%, the viability, T/C [32] was 2.99% and the viability, T/C [33] was 2.53%. The viability, T/C [34] was 2.8%, the viability, T/C [35] was 4.22% and the viability, T/C [36] was 9.04%.
For CCC(CC)c1cc(NC2CCC(N)C2)n2nccc2n1 (centres undefined) + CCn1c(-c2cc(N3CCN(C)CC3)cnc2C(C)OC)c2c3cc(ccc31)-c1csc(n1)CC(NC(=O)C1CC1C)C(=O)N1CCCC(N1)C(=O)OCC(C)(C)C2, the pIC50 (second compound 0.000949 µM) was 5.88, the pIC50 (second compound 0.003 µM) was 5.89 and the pIC50 (second compound 0.00949 µM) was 5.86. The pIC50 (second compound 0.03 µM) was 5.82, the pIC50 (second compound 0.0949 µM) was 5.90 and the pIC50 (second compound 0.3 µM) was 5.96. The viability, T/C [1] was 87.7%, the viability, T/C [2] was 80% and the viability, T/C [3] was 84.6%. For the same molecule, the viability, T/C [4] was 64.7%, the viability, T/C [5] was 1.77% and the viability, T/C [6] was 0.95%. For the same molecule, the viability, T/C [7] was 65.8%, the viability, T/C [8] was 69.4% and the viability, T/C [9] was 66.5%. The viability, T/C [10] was 64%, the viability, T/C [11] was 1.46% and the viability, T/C [12] was 0.76%. It also gave a viability, T/C [13] of 62%, a viability, T/C [14] of 65.9% and a viability, T/C [15] of 71.3%. For the same molecule, the viability, T/C [16] was 76.7%, the viability, T/C [17] was 1.47% and the viability, T/C [18] was 0.9%. For the same molecule, the viability, T/C [19] was 95.4%, the viability, T/C [20] was 92.6% and the viability, T/C [21] was 99.5%. It also gave a viability, T/C [22] of 77.5%, a viability, T/C [23] of 1.04% and a viability, T/C [24] of 0.76%. It also gave a viability, T/C [25] of 119%, a viability, T/C [26] of 107% and a viability, T/C [27] of 102%. It also gave a viability, T/C [28] of 63.6%, a viability, T/C [29] of 1.11% and a viability, T/C [30] of 0.76%. For the same molecule, the viability, T/C [31] was 94.6%, the viability, T/C [32] was 98.1% and the viability, T/C [33] was 86.2%. For the same molecule, the viability, T/C [34] was 55.2%, the viability, T/C [35] was 0.75% and the viability, T/C [36] was 0.8%.
